Laboratory results taken from PubChem BioAssay (NCI).
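1) Cells in 96-well plates. 2) Compound, 48 h, 5 concentrations. 3) Linear interpolation between surrounding doses. 4) Unreached endpoint = highest concentration. GI50 marks 50% less growth. TGI: total growth inhibition.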

Experiments:
Assay in all cases: growth of human tumour cells (NCI), 48 h
M14 melanoma = tested on: M14 melanoma
SK-OV-3 ovarian = tested on: SK-OV-3 ovarian
SF-268 CNS = tested on: SF-268 CNS
MDA-MB-435 = tested on: MDA-MB-435
NCI/ADR-RES ovarian = tested on: NCI/ADR-RES ovarian
SK-MEL-2 melanoma = tested on: SK-MEL-2 melanoma
RPMI-8226 leukemia = tested on: RPMI-8226 leukemia
U251 CNS = tested on: U251 CNS
NCI-H522 lung = tested on: NCI-H522 lung
A498 renal = tested on: A498 renal
SR leukemia = tested on: SR leukemia
COLO 205 colon = tested on: COLO 205 colon
KM12 colon = tested on: KM12 colon
HCT-116 colon = tested on: HCT-116 colon
UACC-257 melanoma = tested on: UACC-257 melanoma
HCC-2998 colon = tested on: HCC-2998 colon
IGROV1 ovarian = tested on: IGROV1 ovarian
DU-145 prostate = tested on: DU-145 prostate
CAKI-1 renal = tested on: CAKI-1 renal
786-0 renal = tested on: 786-0 renal
HOP-62 NSCLC = tested on: HOP-62 NSCLC
HOP-92 NSCLC = tested on: HOP-92 NSCLC
UO-31 renal = tested on: UO-31 renal
MDA-MB-231 breast = tested on: MDA-MB-231 breast
CCRF-CEM leukemia = tested on: CCRF-CEM leukemia
MOLT-4 leukemia = tested on: MOLT-4 leukemia
SK-MEL-28 melanoma = tested on: SK-MEL-28 melanoma
PC-3 prostate = tested on: PC-3 prostate
SF-539 CNS = tested on: SF-539 CNS
SNB-75 CNS = tested on: SNB-75 CNS
NCI-H460 lung = tested on: NCI-H460 lung
BT-549 breast = tested on: BT-549 breast
MALME-3M melanoma = tested on: MALME-3M melanoma
OVCAR-5 ovarian = tested on: OVCAR-5 ovarian
SW-620 colon = tested on: SW-620 colon
HT29 colon = tested on: HT29 colon
TK-10 renal = tested on: TK-10 renal
SN12C renal = tested on: SN12C renal
A549 NSCLC = tested on: A549 NSCLC
SNB-19 CNS = tested on: SNB-19 CNS
NCI-H23 lung = tested on: NCI-H23 lung
OVCAR-8 ovarian = tested on: OVCAR-8 ovarian
HS 578T breast = tested on: HS 578T breast
MCF7 breast = tested on: MCF7 breast
HCT-15 colon = tested on: HCT-15 colon
SF-295 CNS = tested on: SF-295 CNS
SK-MEL-5 melanoma = tested on: SK-MEL-5 melanoma
K-562 leukemia = tested on: K-562 leukemia
OVCAR-3 ovarian = tested on: OVCAR-3 ovarian
NCI-H226 lung = tested on: NCI-H226 lung
UACC-62 melanoma = tested on: UACC-62 melanoma
EKVX NSCLC = tested on: EKVX NSCLC
T-47D breast = tested on: T-47D breast
ACHN renal = tested on: ACHN renal

## C=C(CN1CCc2ccccc2C1)c1ccc(CCC(=O)Nc2ccccc2N)cc1
M14 melanoma
  GI50: 17.6 µM
  TGI: 34.3 µM
SK-OV-3 ovarian
  GI50: 60.8 µM
  TGI: > 100 µM
SF-268 CNS
  GI50: 14.6 µM
  TGI: 45.3 µM
MDA-MB-435
  GI50: 22.5 µM
  TGI: 49.9 µM
NCI/ADR-RES ovarian
  GI50: 18.9 µM
  TGI: 83.3 µM
SK-MEL-2 melanoma
  GI50: 23.9 µM
  TGI: 54 µM
RPMI-8226 leukemia
  GI50: 14.8 µM
  TGI: > 100 µM
U251 CNS
  GI50: 21.3 µM
  TGI: 50.3 µM
NCI-H522 lung
  GI50: 16.2 µM
  TGI: 38.2 µM
A498 renal
  GI50: 26.1 µM
  TGI: 68.7 µM
SR leukemia
  GI50: 18.7 µM
  TGI: 74.5 µM
COLO 205 colon
  GI50: 23.6 µM
  TGI: 48 µM
KM12 colon
  GI50: 21.9 µM
  TGI: 71.8 µM
HCT-116 colon
  GI50: 16.2 µM
  TGI: 32.4 µM
UACC-257 melanoma
  GI50: 22.6 µM
  TGI: 46.4 µM
HCC-2998 colon
  GI50: 17.1 µM
  TGI: 33.4 µM
IGROV1 ovarian
  GI50: 16.3 µM
  TGI: 41.9 µM
DU-145 prostate
  GI50: 18.7 µM
  TGI: 48.7 µM
CAKI-1 renal
  GI50: 20.9 µM
  TGI: 77.1 µM
786-0 renal
  GI50: 18.3 µM
  TGI: > 100 µM
HOP-62 NSCLC
  GI50: 65.7 µM
  TGI: > 100 µM
HOP-92 NSCLC
  GI50: 87.4 µM
  TGI: > 100 µM
UO-31 renal
  GI50: 12 µM
  TGI: 28.7 µM
MDA-MB-231 breast
  GI50: 18.6 µM
  TGI: 44.1 µM
CCRF-CEM leukemia
  GI50: 4.66 µM
  TGI: > 100 µM
MOLT-4 leukemia
  GI50: 4.65 µM
  TGI: 26 µM
SK-MEL-28 melanoma
  GI50: 42.6 µM
  TGI: > 100 µM
PC-3 prostate
  GI50: 25.4 µM
  TGI: > 100 µM
SF-539 CNS
  GI50: 19.4 µM
  TGI: 37 µM
SNB-75 CNS
  GI50: 25.3 µM
  TGI: 64.4 µM
NCI-H460 lung
  GI50: 16.8 µM
  TGI: 38.6 µM
BT-549 breast
  GI50: 16.4 µM
  TGI: 55.1 µM
MALME-3M melanoma
  GI50: 8.7 µM
  TGI: 36.8 µM
OVCAR-5 ovarian
  GI50: 54.1 µM
  TGI: > 100 µM
SW-620 colon
  GI50: 28.3 µM
  TGI: 65.8 µM
HT29 colon
  GI50: 31 µM
  TGI: > 100 µM
TK-10 renal
  GI50: 43.1 µM
  TGI: > 100 µM
SN12C renal
  GI50: 17.3 µM
  TGI: 51 µM
A549 NSCLC
  GI50: 41.3 µM
  TGI: > 100 µM
SNB-19 CNS
  GI50: 64.3 µM
  TGI: > 100 µM
NCI-H23 lung
  GI50: 28.6 µM
  TGI: 85.2 µM
OVCAR-8 ovarian
  GI50: 26.2 µM
  TGI: 59.5 µM
HS 578T breast
  GI50: 44 µM
  TGI: > 100 µM
MCF7 breast
  GI50: 21.1 µM
  TGI: 54.7 µM
HCT-15 colon
  GI50: 35.4 µM
  TGI: 97.9 µM
SF-295 CNS
  GI50: 24.2 µM
  TGI: 86.7 µM
SK-MEL-5 melanoma
  GI50: 18 µM
  TGI: 33.2 µM
K-562 leukemia
  GI50: 23 µM
  TGI: 56.9 µM
OVCAR-3 ovarian
  GI50: 19.3 µM
  TGI: 63.5 µM
NCI-H226 lung
  GI50: 27.1 µM
  TGI: 71.2 µM
UACC-62 melanoma
  GI50: 26.9 µM
  TGI: > 100 µM
EKVX NSCLC
  GI50: 37.1 µM
  TGI: > 100 µM
T-47D breast
  GI50: 34.3 µM
  TGI: > 100 µM
ACHN renal
  GI50: 34.1 µM
  TGI: > 100 µM
